Data set [1] in a line: Herbicidal activity against broadleaf weed assessed as killing at 50 g/ha pre-emergence application under paddy conditions. Format: functional.
In data set [2] the test system is Oryza sativa. Put plainly: Toxicity in Oryza sativa (rice) assessed as injury at 50 g/ha pre-emergence application under paddy conditions by crop safety assay. Format: organism-based. The following applies: in vivo, other.
For data set [3], the system named is Schoenoplectiella juncoides. As to the kind of experiment: Herbicidal activity against Schoenoplectiella juncoides assessed as killing at 50 g/ha pre-emergence application under paddy conditions. Format: functional.
Data set [4] deals with Echinochloa oryzicola. As to the kind of experiment: Herbicidal activity against Echinochloa oryzicola assessed as killing pre-emergence application under paddy conditions. Format: functional.
Data set [5] can be described thus: Octanol-water partition coefficient, log K of the compound. It counts as physicochemical. The conditions noted are these: read-out: log K.
The nature of data set [6]: Herbicidal activity against broadleaf weed assessed as killing at 25 g/ha pre-emergence application under paddy conditions. It counts as functional.
Data set [7] relates to Echinochloa oryzicola. As to the kind of experiment: Herbicidal activity against Echinochloa oryzicola assessed as killing at 50 g/ha pre-emergence application under paddy conditions. It counts as functional.
Data set [8] deals with Pontederia vaginalis. As to the kind of experiment: Herbicidal activity against Monochoria vaginalis assessed as killing at 25 g/ha pre-emergence application under paddy conditions. Format: functional.
Data set [9] concerns Oryza sativa. Put plainly: Toxicity in Oryza sativa (rice) assessed as injury at 25 g/ha pre-emergence application under paddy conditions by crop safety assay. It counts as organism-based. The conditions noted are these: in vivo, other.
Data set [10] has as its system Schoenoplectiella juncoides. As to the kind of experiment: Herbicidal activity against Schoenoplectiella juncoides assessed as killing at 25 g/ha pre-emergence application under paddy conditions. It counts as functional.
The test system of data set [11] is Echinochloa oryzicola. As to the kind of experiment: Herbicidal activity against Echinochloa oryzicola assessed as killing at 25 g/ha pre-emergence application under paddy conditions. It counts as functional.
Data set [12] has as its system Pontederia vaginalis. Put plainly: Herbicidal activity against Monochoria vaginalis assessed as killing at 50 g/ha pre-emergence application under paddy conditions. Format: functional.
For data set [13], the system named is Schoenoplectiella juncoides. Put plainly: Herbicidal activity against Schoenoplectiella juncoides assessed as killing at 10 g/ha pre-emergence application under paddy conditions. Format: functional.
Data set [14] is described as follows: Herbicidal activity against broadleaf weed assessed as killing at 10 g/ha pre-emergence application under paddy conditions. Format: functional.
In data set [15] the test system is Echinochloa oryzicola. As to the kind of experiment: Herbicidal activity against Echinochloa oryzicola assessed as killing at 10 g/ha pre-emergence application under paddy conditions. Format: functional.
For data set [16], the system named is Oryza sativa. As to the kind of experiment: Toxicity in Oryza sativa (rice) assessed as injury at 10 g/ha pre-emergence application under paddy conditions by crop safety assay. It counts as organism-based. The conditions noted are these: in vivo, other.
The subject of data set [17] is Pontederia vaginalis. Put plainly: Herbicidal activity against Monochoria vaginalis assessed as killing at 10 g/ha pre-emergence application under paddy conditions. It counts as functional.
Data set [18] relates to Echinochloa crus-galli. As to the kind of experiment: Herbicidal activity against Echinochloa crus-galli (barnyard grass) assessed as killing at 500 g/ha pre-emergence application upland paddy conditions measured after 14 days. Format: functional.
Data set [19] has as its system Zea mays. Put plainly: Herbicidal activity against Zea mays (maize)assessed as killing at 500 g/ha pre-emergence application upland paddy conditions measured after 14 days. Format: functional.
Data set [20] concerns Chenopodium album. Put plainly: Herbicidal activity against Chenopodium album assessed as killing at 500 g/ha pre-emergence application upland paddy conditions measured after 14 days. It counts as functional.
Data set [21] concerns Digitaria ciliaris. Put plainly: Herbicidal activity against Digitaria ciliaris assessed as killing at 500 g/ha pre-emergence application upland paddy conditions measured after 14 days. Format: functional.

The structures appear in SMILES notation.

In the case of `CCN(CC)C(=O)n1cnc(S(=O)(=O)C(CC(C)C)C(=O)OC(C)(C)C)n1` (stereo not given), the Activity in data set [1] is 10%; in data set [2] it was 10%; in data set [3], 10%; in [6], 10%; in data set [7], 90%; in data set [8], 10%. Further, the Activity is 10% in [9], 10% in [10], 30% in [11] and 10% in [12]. For the same compound, the “log(1/ED80)” value in [4] is listed as 1. Moreover, the logP in data set [5] was 0.99.
In the case of `CCOC(=O)C(CC(C)C)S(=O)(=O)c1ncn(C(=O)N(CC)CC)n1` (stereo not given), the Activity in data set [1] is 60%; in data set [2], 10%; in data set [3], 90%; in data set [6], 50%; in data set [7] it was 100%; in data set [8], 40%. Further, the Activity in data set [9] stood at 10%; in data set [10], 30%; in data set [11], 90%; in [12], 90%. In addition, in data set [4], the “log(1/ED80)” value was found to be 1.27. In data set [5], the logP was determined as 0.78.
Take `CCN(CC)C(=O)n1cnc(S(=O)(=O)[C@H](CC(C)C)C(=O)OC(C)C)n1`: the Activity in [13] worked out at 10%; in data set [6] it was 60%; in [8] it was 40%; in data set [9], 10%; in data set [10], 40%; in [14], 40%. Also, the Activity came to 90% in data set [11], 50% in data set [15], 10% in data set [16] and 10% in data set [17].
Consider `CCCCOC(=O)C(CC(C)C)S(=O)(=O)c1ncn(C(=O)N(CC)CC)n1` (stereo not given), for which the Activity came out at 80% in data set [1]; 10% in data set [2]; 100% in [3]; 60% in data set [6]; 100% in [7]; 90% in data set [8]. The Activity amounted to 10% in [9], 100% in [10], 100% in data set [11] and 100% in [12]. Moreover, the “log(1/ED80)” value in data set [4] is reported as 1.3. Moreover, in data set [5], the logP was 1.04.
Consider `CCN(CC)C(=O)n1cnc(S(=O)(=O)C(CC(C)C)C(=O)OC(C)C)n1` (stereo not given), for which the Activity in [1] amounted to 100%; in data set [2] it was 10%; in [3], 100%; in [13], 30%; in data set [6] it was 90%; in data set [7], 100%. The Activity in [8] is 40%; in data set [9], 10%; in data set [10], 60%; in [14] it was 40%; in [11] it was 90%; in data set [15], 40%. For the same compound, the Activity in data set [12] came to 100%; in [16], 10%; in data set [17], 10%. Besides, the “log(1/ED80)” value in [4] is 1.41. Besides, the logP in [5] amounted to 0.89.
`CCCOC(=O)C(CC(C)C)S(=O)(=O)c1ncn(C(=O)N(CC)CC)n1` (stereo not given): the Activity in [1] was found to be 100%; in data set [2], 10%; in data set [3] it was 100%; in data set [6], 60%; in [7] it was 100%; in data set [8], 60%. For the same compound, the Activity in data set [9] is recorded as 10%; in [10] it was 70%; in data set [11], 90%; in [12], 100%. Also, in [4], the “log(1/ED80)” value was 1.41. Also, in [5], the logP was 0.9.
In the case of `CCCCCOC(=O)C(CC(C)C)S(=O)(=O)c1ncn(C(=O)N(CC)CC)n1` (stereo not given), the Activity in data set [1] is 60%; in data set [2], 10%; in data set [3], 40%; in data set [6], 30%; in [7], 40%; in data set [8], 10%. Besides, the Activity in [9] was determined as 10%; in data set [10], 10%; in data set [11] it was 40%; in data set [12], 10%. The “log(1/ED80)” value in data set [4] came out at 0.62. Besides, the logP in data set [5] is 1.18.
`CCN(CC)C(=O)n1cnc(S(=O)(=O)C(CC(C)C)C(=O)OCC(C)C)n1` (stereo not given): the Activity was determined as 60% in data set [1]; 10% in data set [2]; 100% in [3]; 30% in data set [6]; 80% in data set [7]; 40% in data set [8]. The Activity is recorded as 10% in data set [9], 30% in [10], 40% in data set [11] and 100% in data set [12]. Moreover, the “log(1/ED80)” value in data set [4] was determined as 0.91. The logP in [5] stood at 1.03.
In the case of `CCN(CC)C(=O)n1cnc(S(=O)(=O)C(C(=O)OC)C2CCCC2)n1` (stereo not given), the Activity was 90% in data set [18]; 90% in data set [1]; 10% in [2]; 80% in data set [19]; 100% in data set [3]; 100% in [7]. Also, the Activity worked out at 90% in data set [20], 90% in [21] and 100% in [12]. For the same compound, the “log(1/ED80)” value in data set [4] is reported as 1.27. Also, the logP in [5] was 0.69.
In the case of `CCN(CC)C(=O)n1cnc(S(=O)(=O)C(CC(C)C)C(=O)OC)n1` (stereo not given), the Activity is 100% in data set [18]; 100% in data set [1]; 10% in data set [2]; 40% in data set [19]; 100% in [3]; 70% in data set [6]. In addition, the Activity amounted to 100% in data set [7]; 50% in data set [8]; 10% in [9]; 80% in [10]; 100% in [20]; 100% in data set [21]. Further, the Activity in data set [11] and in data set [12] was 100% each time. Besides, the “log(1/ED80)” value in data set [4] worked out at 1.26. In [5], the logP was determined as 0.68.
As to `CCN(CC)C(=O)n1cnc(S(=O)(=O)c2c(C)cc(C)cc2C)n1` [CAFENSTROLE], the Activity is 90% in data set [18]; 100% in data set [1]; 10% in [2]; 60% in data set [19]; 100% in data set [3]; 90% in data set [6]. Moreover, the Activity in data set [7] came out at 100%; in data set [8] it was 100%; in [9] it was 10%; in data set [10] it was 90%; in data set [20], 100%; in data set [21], 90%. Also, the Activity in [11] and in data set [12] was 100% in each case.
